Structures can show the parent of a compound that is named as a salt.
What was measured:
cFMS = molecular target: T1, cFMS (Homo sapiens, UniProt P07333); assay: cFMS Cell-Based Assay (Example C); conditions: averaged IC50; phospho-cFMS in THP-1 cells stimulated with 250 ng/mL recombinant human MCSF; read-out: cFMS Cell ELISA IC50
T1 construct: THP-1 cells (human acute monocytic leukemia cell line) were serum-starved for 4 hours; endogenous in cells; host or cells: THP-1 cells (human acute monocytic leukemia cell line)
Summary of the method: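 THP-1 cells serum-starved 4 h, then treated 1 h with compound (9-point, 3-fold series, top dose typically 5,000 nM) at 37 °C, then stimulated 1 min with 250 ng/mL recombinant human MCSF. Phospho-cFMS in lysates quantified by capture ELISA against a purified phospho-protein standard curve. IC50 at 50 percent of control, 4-parameter logistic fit.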

c-KIT = molecular target: T2, c-KIT (Homo sapiens, UniProt P10721); assay: c-KIT Cell-Based Assay (Example D); conditions: averaged IC50; phospho-c-KIT in M-07e cells stimulated with 150 ng/ml recombinant human SCF; read-out: cKIT Cell ELISA IC50
T2 construct: M-07e cells (human acute megakaryoblastic leukemia cell line) were serum-starved for 4 hours; endogenous in cells; host or cells: M-07e cells (human acute megakaryoblastic leukemia cell line)
Summary of the method: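 M-07e cells serum-starved 4 h, treated 1 h with compound (9-point, 3-fold dilutions, top dose typically 5,000 nM) at 37° C, then stimulated 4 min with 150 ng/ml SCF. Phospho-c-KIT in lysates quantified by ELISA against a standard curve; IC50 from 4-parameter logistic fit as 50% of control.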

PDGFR beta [1] = molecular target: T3, PDGFR beta (Homo sapiens, UniProt P09619); assay: Phospho PDGFR LICOR Cell Assay (Example B); type: cell-based; conditions: averaged IC50; PDGFR beta phosphorylation in HS27 human fibroblast cell line, PDGF-BB stimulation 10 minutes, normalized to total ERK
T3 construct: endogenous in cells; host or cells: HS27 human fibroblast cell line
Summary of the method: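 HS27 human fibroblasts pretreated 1 h with compound, then stimulated 10 min with PDGF-BB. Fixed, permeabilized cells immunostained for phospho-PDGFRβ and total ERK and read by two-colour infrared fluorescence, with phospho signal normalized to ERK. IC50 = 50% of control from 4-parameter logistic fit.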

PDGFR beta [2] = molecular target: T3, PDGFR beta; assay: Phospho PDGFR Cell Assay, sandwich ELISA (Example A); type: cell-based; conditions: averaged IC50, PDGFR beta phosphorylation in HS27 human fibroblast cell line, PDGF-BB stimulation 5 minutes
Protocol: Compounds were screened for inhibition of PDGFR beta phosphorylation in the HS27 human fibroblast cell line. Cells were seeded into a 96 well tissue culture plate, then incubated overnight in a 37° C., 5% CO2 incubator. The following day, cells were treated for one hour with test compound dilutions. After stimulation with PDGF-BB ligand for 5 minutes, cells were lysed and added to a sandwich ELISA plate from R&D Systems to detect levels of phospho PDGFR beta. A standard 4-parameter logistic model was fit to the inhibitor dose response curves, with the IC50 being defined as the concentration of inhibitor giving 50 percent of control (POC).

T2 sequence (P10721 26-976): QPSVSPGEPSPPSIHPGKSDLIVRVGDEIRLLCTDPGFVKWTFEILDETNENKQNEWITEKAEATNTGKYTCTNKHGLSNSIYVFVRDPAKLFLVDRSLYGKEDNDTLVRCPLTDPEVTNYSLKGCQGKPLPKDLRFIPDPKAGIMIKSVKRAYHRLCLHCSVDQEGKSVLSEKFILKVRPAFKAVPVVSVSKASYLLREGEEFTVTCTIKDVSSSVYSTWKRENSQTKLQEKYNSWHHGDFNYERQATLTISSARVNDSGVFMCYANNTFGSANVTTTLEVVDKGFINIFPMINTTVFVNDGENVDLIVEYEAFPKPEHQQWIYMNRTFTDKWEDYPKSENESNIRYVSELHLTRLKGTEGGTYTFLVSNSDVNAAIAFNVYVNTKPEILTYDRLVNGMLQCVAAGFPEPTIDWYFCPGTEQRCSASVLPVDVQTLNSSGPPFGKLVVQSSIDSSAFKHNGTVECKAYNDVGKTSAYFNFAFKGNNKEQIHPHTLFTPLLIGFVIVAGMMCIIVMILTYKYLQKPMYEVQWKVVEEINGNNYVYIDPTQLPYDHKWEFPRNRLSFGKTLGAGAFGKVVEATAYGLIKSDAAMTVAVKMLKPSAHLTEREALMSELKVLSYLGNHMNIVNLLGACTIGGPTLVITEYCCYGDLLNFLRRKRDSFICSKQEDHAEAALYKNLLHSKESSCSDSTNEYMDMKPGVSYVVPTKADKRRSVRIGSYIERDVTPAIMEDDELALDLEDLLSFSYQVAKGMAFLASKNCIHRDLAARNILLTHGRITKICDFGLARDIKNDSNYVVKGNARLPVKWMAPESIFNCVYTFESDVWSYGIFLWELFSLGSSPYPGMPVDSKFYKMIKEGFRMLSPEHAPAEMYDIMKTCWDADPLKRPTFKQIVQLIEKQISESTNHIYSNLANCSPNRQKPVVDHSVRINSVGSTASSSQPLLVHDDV
T1 sequence (P07333 20-972): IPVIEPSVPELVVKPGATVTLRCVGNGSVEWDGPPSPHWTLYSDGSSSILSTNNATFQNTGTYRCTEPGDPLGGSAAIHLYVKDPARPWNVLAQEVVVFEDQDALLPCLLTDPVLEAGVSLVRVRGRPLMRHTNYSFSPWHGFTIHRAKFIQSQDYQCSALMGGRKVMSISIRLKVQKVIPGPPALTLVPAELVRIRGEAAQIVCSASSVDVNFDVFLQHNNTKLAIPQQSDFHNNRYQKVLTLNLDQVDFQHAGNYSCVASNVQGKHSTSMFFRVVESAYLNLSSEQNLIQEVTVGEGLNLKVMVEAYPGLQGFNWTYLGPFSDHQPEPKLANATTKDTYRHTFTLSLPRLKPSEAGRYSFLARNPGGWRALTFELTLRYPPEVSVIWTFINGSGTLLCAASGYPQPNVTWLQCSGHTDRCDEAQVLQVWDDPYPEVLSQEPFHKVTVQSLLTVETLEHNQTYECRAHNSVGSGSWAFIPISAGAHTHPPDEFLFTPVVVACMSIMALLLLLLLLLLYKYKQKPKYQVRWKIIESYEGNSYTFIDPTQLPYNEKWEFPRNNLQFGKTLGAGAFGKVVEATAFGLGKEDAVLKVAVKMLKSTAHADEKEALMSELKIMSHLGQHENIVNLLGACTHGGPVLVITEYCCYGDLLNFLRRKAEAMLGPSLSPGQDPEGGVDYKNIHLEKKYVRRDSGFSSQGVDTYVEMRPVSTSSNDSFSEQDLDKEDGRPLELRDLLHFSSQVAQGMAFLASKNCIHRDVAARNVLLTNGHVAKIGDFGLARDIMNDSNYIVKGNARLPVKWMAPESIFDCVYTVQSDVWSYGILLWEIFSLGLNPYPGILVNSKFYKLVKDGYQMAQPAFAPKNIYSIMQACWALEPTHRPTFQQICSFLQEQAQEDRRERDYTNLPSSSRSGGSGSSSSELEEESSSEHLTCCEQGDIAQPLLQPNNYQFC
T3 sequence (P09619 33-1106): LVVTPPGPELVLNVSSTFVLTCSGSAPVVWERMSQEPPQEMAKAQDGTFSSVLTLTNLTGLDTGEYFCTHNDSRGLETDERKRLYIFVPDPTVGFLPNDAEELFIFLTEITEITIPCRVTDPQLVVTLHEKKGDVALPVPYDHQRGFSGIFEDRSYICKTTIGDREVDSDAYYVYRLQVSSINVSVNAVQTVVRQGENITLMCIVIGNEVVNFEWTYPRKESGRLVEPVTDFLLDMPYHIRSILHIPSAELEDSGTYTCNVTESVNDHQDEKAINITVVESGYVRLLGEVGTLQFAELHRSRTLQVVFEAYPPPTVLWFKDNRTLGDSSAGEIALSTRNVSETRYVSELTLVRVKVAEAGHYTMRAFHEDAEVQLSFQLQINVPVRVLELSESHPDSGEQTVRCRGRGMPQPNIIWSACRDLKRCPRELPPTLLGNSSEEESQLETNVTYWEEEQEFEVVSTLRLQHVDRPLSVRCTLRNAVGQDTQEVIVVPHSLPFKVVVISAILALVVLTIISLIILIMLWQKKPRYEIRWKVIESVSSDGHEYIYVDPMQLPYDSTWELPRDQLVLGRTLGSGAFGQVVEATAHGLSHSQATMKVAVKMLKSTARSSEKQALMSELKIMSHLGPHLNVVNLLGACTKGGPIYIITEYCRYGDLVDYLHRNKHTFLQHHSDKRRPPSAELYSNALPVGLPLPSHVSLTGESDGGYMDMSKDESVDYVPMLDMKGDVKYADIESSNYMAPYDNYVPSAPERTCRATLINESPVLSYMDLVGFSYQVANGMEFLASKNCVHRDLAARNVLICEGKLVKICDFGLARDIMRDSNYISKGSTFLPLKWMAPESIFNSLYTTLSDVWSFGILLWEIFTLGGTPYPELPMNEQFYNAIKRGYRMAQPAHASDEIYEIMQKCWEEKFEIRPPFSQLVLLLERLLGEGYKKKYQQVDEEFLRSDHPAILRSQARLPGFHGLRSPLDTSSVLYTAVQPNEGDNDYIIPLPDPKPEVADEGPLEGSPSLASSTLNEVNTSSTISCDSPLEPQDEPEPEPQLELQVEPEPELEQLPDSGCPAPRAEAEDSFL

IC50 (cFMS) [nM]	IC50 (c-KIT) [nM]	IC50 (PDGFR beta [1]) [nM]	IC50 (PDGFR beta [2]) [nM]	Compound
16.1	53.3	12.9	29.7	Cc1nn(Cc2cccc(C(C)C)n2)c2cccc(NC(=O)c3cnc4cc(OCCN5CCOCC5)ccn34)c12 [Example 1, N-(1-((6-isopropylpyridin-2-yl)methyl)-3-methyl-1H-indazol-4-yl)-7-(2-morpholinoethoxy)imidazo[1,2-a]pyridine-3-carboxamide]
27.7	41.1	23.7	9.4	CCN1CCN(CCOc2ccn3c(C(=O)Nc4cccc5c4c(C)nn5Cc4cccc(C(C)C)n4)cnc3c2)CC1 [Example 2, 7-(2-(4-Ethylpiperazin-1-yl)ethoxy)-N-(1-((6-isopropylpyridin-2-yl)methyl)-3-methyl-1H-indazol-4-yl)imidazo[1,2-a]pyridine-3-carboxamide]
70.4	176	10	138	Cc1nn(Cc2cccc(C(C)C)n2)c2cccc(NC(=O)c3cnc4cc(OCCN5CC6(CNC6)C5)ccn34)c12 [Example 3, 7-(2-(2,6-diazaspiro[3.3]heptan-2-yl)ethoxy)-N-(1-((6-isopropylpyridin-2-yl)methyl)-3-methyl-1H-indazol-4-yl)imidazo[1,2-a]pyridine-3-carboxamide trihydrochloride]
29.4	81.6	10.7	27.9	Cc1nn(Cc2cccc(C(C)C)n2)c2cccc(NC(=O)c3cnc4cc(OCCN5CC6(CN(C)C6)C5)ccn34)c12 [Example 4, N-(1-((6-isopropylpyridin-2-yl)methyl)-3-methyl-1H-indazol-4-yl)-7-(2-(6-methyl-2,6-diazaspiro[3.3]heptan-2-yl)ethoxy)imidazo[1,2-a]pyridine-3-carboxamide]
27.9	82.8	22	20.5	Cc1nn(Cc2cccc(C(C)C)n2)c2cccc(NC(=O)c3cnc4cc(OCCN5CC6(COC6)C5)ccn34)c12 [Example 5, 7-(2-(2-oxa-6-azaspiro[3.3]heptan-6-yl)ethoxy)-N-(1-((6-isopropylpyridin-2-yl)methyl)-3-methyl-1H-indazol-4-yl)imidazo[1,2-a]pyridine-3-carboxamide]
40.9	57	6.3	33.5	Cc1nn(Cc2cccc(C(C)C)n2)c2cccc(NC(=O)c3cnc4cc(OCCN5CCN(C(C)C)CC5)ccn34)c12 [Example 6, 7-(2-(4-Isopropylpiperazin-1-yl)ethoxy)-N-(1-((6-isopropylpyridin-2-yl)methyl)-3-methyl-1H-indazol-4-yl)imidazo[1,2-a]pyridine-3-carboxamide]
20.6	96.4	36.6	37.7	Cc1nn(Cc2csc(C(C)C)n2)c2cccc(NC(=O)c3cnc4cc(OCCN5CC6(COC6)C5)ccn34)c12 [Example 14, 7-(2-(2-oxa-6-azaspiro[3.3]heptan-6-yl)ethoxy)-N-(1-((2-isopropylthiazol-4-yl)methyl)-3-methyl-1H-indazol-4-yl)imidazo[1,2-a]pyridine-3-carboxamide]
13.9	34.8	103	28.1	Cc1nn(Cc2cccc(C3CC3)n2)c2cccc(NC(=O)c3cnc4cc(OCCN5CCN(C(C)C)CC5)ccn34)c12 [Example 16, N-(1-((6-cyclopropylpyridin-2-yl)methyl)-3-methyl-1H-indazol-4-yl)-7-(2-(4-isopropylpiperazin-1-yl)ethoxy)imidazo[1,2-a]pyridine-3-carboxamide]
11	54.2	313	85	CCN1CCN(CCOc2ccn3c(C(=O)Nc4cccc5c4c(C)nn5Cc4cccc(C5CC5)n4)cnc3c2)CC1 [Example 17, N-(1-((6-cyclopropylpyridin-2-yl)methyl)-3-methyl-1H-indazol-4-yl)-7-(2-(4-ethylpiperazin-1-yl)ethoxy)imidazo[1,2-a]pyridine-3-carboxamide]
10.2	81.8	674	59.9	Cc1nn(Cc2cccc(C3CC3)n2)c2cccc(NC(=O)c3cnc4cc(OCCN5CCOCC5)ccn34)c12 [Example 18, N-(1-((6-cyclopropylpyridin-2-yl)methyl)-3-methyl-1H-indazol-4-yl)-7-(2-morpholinoethoxy)imidazo[1,2-a]pyridine-3-carboxamide]
9.4	39.1	247	43.2	Cc1nn(Cc2cccc(C3CC3)n2)c2cccc(NC(=O)c3cnc4cc(OCCN5CCN(C)C(C)(C)C5)ccn34)c12 [Example 19, N-(1-((6-cyclopropylpyridin-2-yl)methyl)-3-methyl-1H-indazol-4-yl)-7-(2-(3,3,4-trimethylpiperazin-1-yl)ethoxy)imidazo[1,2-a]pyridine-3-carboxamide]
23.8	51.4	18	41.8	Cc1nn(Cc2cccc(C(C)C)n2)c2cccc(NC(=O)c3cnc4cc(OCCN5CCN(C)[C@@H](C)C5)ccn34)c12 [Example 25, (S)-7-(2-(3,4-dimethylpiperazin-1-yl)ethoxy)-N-(1-((6-isopropylpyridin-2-yl)methyl)-3-methyl-1H-indazol-4-yl)imidazo[1,2-a]pyridine-3-carboxamide]
13.7	27.9	63.2	29.6	Cc1nn(Cc2cccc(C3CC3)n2)c2cccc(NC(=O)c3cnc4cc(OCCN5CCN(C)[C@@H](C)C5)ccn34)c12 [Example 26, (S)—N-(1-((6-cyclopropylpyridin-2-yl)methyl)-3-methyl-1H-indazol-4-yl)-7-(2-(3,4-dimethylpiperazin-1-yl)ethoxy)imidazo[1,2-a]pyridine-3-carboxamide dihydrochloride]
13.8	36.2	72.6	69.5	Cc1nn(Cc2cccc(C3CC3)n2)c2cccc(NC(=O)c3cnc4cc(OCCN5CCN(C)[C@H](C)C5)ccn34)c12 [Example 27, (R)—N-(1-((6-cyclopropylpyridin-2-yl)methyl)-3-methyl-1H-indazol-4-yl)-7-(2-(3,4-dimethylpiperazin-1-yl)ethoxy)imidazo[1,2-a]pyridine-3-carboxamide dihydrochloride]
14	35.5	9.9	5.9	Cc1nn(Cc2cccc(C(C)C)n2)c2cccc(NC(=O)c3cnc4cc(OCCN5CCN(C)[C@H](C)C5)ccn34)c12 [Example 28, (R)-7-(2-(3,4-dimethylpiperazin-1-yl)ethoxy)-N-(1-((6-isopropylpyridin-2-yl)methyl)-3-methyl-1H-indazol-4-yl)imidazo[1,2-a]pyridine-3-carboxamide]
		4800	≥ 1000	Cc1cccc(CCn2nc(C)c3c(NC(=O)c4cnc5cc(OCCN6CCN(C)[C@@H](C)C6)ccn45)cccc32)n1 [Example 42, (S)-7-(2-(3,4-dimethylpiperazin-1-yl)ethoxy)-N-(3-methyl-1-(2-(6-methylpyridin-2-yl)ethyl)-1H-indazol-4-yl)imidazo[1,2-a]pyridine-3-carboxamide]
22.7	63.4	794	116	Cc1nn(Cc2ccc(C(F)(F)F)cn2)c2cccc(NC(=O)c3cnc4cc(OCCN5CCN(C(C)C)CC5)ccn34)c12 [Example 44, 7-(2-(4-isopropylpiperazazin-1-yl)ethoxy)-N-(3-methyl-1-((5-(trifluoromethyl)pyridin-2-yl)methyl)-1H-indazol-4-yl)imidazo[1,2-a]pyridine-3-carboxamide]
13.4	166	113	347	Cc1nn(Cc2cccc(C(F)(F)F)n2)c2cccc(NC(=O)c3cnc4cc(OCCN5CCN(C(C)C)CC5)ccn34)c12 [Example 45, 7-(2-(4-isopropylpiperazin-1-yl)ethoxy)-N-(3-methyl-1-((6-(trifluoromethyl)pyridin-2-yl)methyl)-1H-indazol-4-yl)imidazo[1,2-a]pyridine-3-carboxamide]
